Laboratory results reported in ChEMBL document CHEMBL4414672, “Synthesis of certain benzothieno[3,2-d]pyrimidine derivatives as a selective SIRT2 inhibitors” (Eur J Med Chem, 2020).
Values after ≈ are worked out from the molar mass of the structure shown.

Key:
MCF7 [1] = assay: Cytotoxicity against human MCF7 cells assessed as reduction in cell viability after 24 hrs by MTT assay; format: functional, cell-based; details: MCF7, 24 h
UO-31 [2] = assay: Cytotoxicity against human UO31 cells assessed as reduction in cell viability after 24 hrs by MTT assay; format: functional, cell-based; details: UO-31, 24 h
[3] = target: T1, NAD-dependent protein deacetylase sirtuin-2 (Homo sapiens, UniProt Q8IXJ6); assay: Inhibition of SIRT2 (unknown origin) using fluorogenic substrate assessed as deacetylase activity incubated for 45 mins by fluorescence assay
T1 sequence (Q8IXJ6 whole entry): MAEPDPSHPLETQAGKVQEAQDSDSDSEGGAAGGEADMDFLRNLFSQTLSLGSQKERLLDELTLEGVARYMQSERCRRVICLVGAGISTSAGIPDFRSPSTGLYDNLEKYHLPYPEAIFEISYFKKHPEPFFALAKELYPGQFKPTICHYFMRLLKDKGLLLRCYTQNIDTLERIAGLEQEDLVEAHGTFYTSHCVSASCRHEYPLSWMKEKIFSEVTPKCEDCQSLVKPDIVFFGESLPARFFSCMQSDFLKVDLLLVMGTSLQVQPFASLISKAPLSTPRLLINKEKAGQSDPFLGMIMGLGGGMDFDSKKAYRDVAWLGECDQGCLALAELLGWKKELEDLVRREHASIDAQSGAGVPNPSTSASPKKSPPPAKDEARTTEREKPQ

HL-60(TB) = assay: Growth inhibition of human HL-60(TB) cells at 10^-5 M incubated for 48 hrs by sulforhodamine B assay; format: functional; details: HL-60, 48 h, read-out: GI
MOLT-4 = assay: Growth inhibition of human MOLT4 cells at 10^-5 M incubated for 48 hrs by sulforhodamine B assay; format: functional; details: MOLT-4, 48 h, read-out: GI
SR = assay: Growth inhibition of human SR cells at 10^-5 M incubated for 48 hrs by sulforhodamine B assay; format: functional; details: read-out: GI
HOP-62 = assay: Growth inhibition of human HOP62 cells at 10^-5 M incubated for 48 hrs by sulforhodamine B assay; format: functional; details: HOP-62, 48 h, read-out: GI
NCI-H226 = assay: Growth inhibition of human NCI-H226 cells at 10^-5 M incubated for 48 hrs by sulforhodamine B assay; format: functional; details: NCI-H226, 48 h, read-out: GI
HCC 2998 = assay: Growth inhibition of human HCC2998 cells at 10^-5 M incubated for 48 hrs by sulforhodamine B assay; format: functional; details: HCC 2998, 48 h, read-out: GI
HT-29 = assay: Growth inhibition of human HT-29 cells at 10^-5 M incubated for 48 hrs by sulforhodamine B assay; format: functional; details: HT-29, 48 h, read-out: GI
SK-MEL-28 = assay: Growth inhibition of human SK-MEL-28 cells at 10^-5 M incubated for 48 hrs by sulforhodamine B assay; format: functional; details: SK-MEL-28, 48 h, read-out: GI
UACC-257 = assay: Growth inhibition of human UACC257 cells at 10^-5 M incubated for 48 hrs by sulforhodamine B assay; format: functional; details: UACC-257, 48 h, read-out: GI
UACC-62 = assay: Growth inhibition of human UACC62 cells at 10^-5 M incubated for 48 hrs by sulforhodamine B assay; format: functional; details: UACC-62, 48 h, read-out: GI
OVCAR-5 = assay: Growth inhibition of human OVCAR5 cells at 10^-5 M incubated for 48 hrs by sulforhodamine B assay; format: functional; details: OVCAR-5, 48 h, read-out: GI
786-0 = assay: Growth inhibition of human 786-0 cells at 10^-5 M incubated for 48 hrs by sulforhodamine B assay; format: functional; details: 786-0, 48 h, read-out: GI
CAKI-1 = assay: Growth inhibition of human Caki1 cells at 10^-5 M incubated for 48 hrs by sulforhodamine B assay; format: functional; details: CAKI-1, 48 h, read-out: GI
RXF 393 = assay: Growth inhibition of human RXF393 cells at 10^-5 M incubated for 48 hrs by sulforhodamine B assay; format: functional; details: RXF 393, 48 h, read-out: GI
UO-31 [4] = assay: Growth inhibition of human UO31 cells at 10^-5 M incubated for 48 hrs by sulforhodamine B assay; format: functional; details: UO-31, 48 h, read-out: GI
DU-145 = assay: Growth inhibition of human DU145 cells at 10^-5 M incubated for 48 hrs by sulforhodamine B assay; format: functional; details: DU-145, 48 h, read-out: GI
MCF7 [5] = assay: Growth inhibition of human MCF7 cells at 10^-5 M incubated for 48 hrs by sulforhodamine B assay; format: functional; details: MCF7, 48 h, read-out: GI
MDA-MB-231 = assay: Growth inhibition of human MDA-MB-231 cells at 10^-5 M incubated for 48 hrs by sulforhodamine B assay; format: functional; details: MDA-MB-231, 48 h, read-out: GI
BT-549 = assay: Growth inhibition of human BT549 cells at 10^-5 M incubated for 48 hrs by sulforhodamine B assay; format: functional; details: BT-549, 48 h, read-out: GI
MDA-MB-468 = assay: Growth inhibition of human MDA-MB-468 cells at 10^-5 M incubated for 48 hrs by sulforhodamine B assay; format: functional; details: MDA-MB-468, 48 h, read-out: GI

## Cc1cc(C)n(C2=Nc3c(sc4ccc(Cl)cc34)C(c3cccc([N+](=O)[O-])c3)N2)n1 (centres undefined)
MCF7 [1]
  IC50: 1.67 µg/mL (≈ 3.81 µM)
UO-31 [2]
  IC50: 9.62 µg/mL (≈ 22 µM)
[3]
  IC50: 19.3 µM
HL-60(TB)
  inhibition of growth at 10 µM: -2.76%
MOLT-4
  inhibition of growth at 10 µM: 16.5%
SR
  inhibition of growth at 10 µM: -4.84%
HOP-62
  inhibition of growth at 10 µM: 18.2%
NCI-H226
  inhibition of growth at 10 µM: 17.1%
HCC 2998
  inhibition of growth at 10 µM: -5.86%
HT-29
  inhibition of growth at 10 µM: -2.6%
SK-MEL-28
  inhibition of growth at 10 µM: -16%
UACC-257
  inhibition of growth at 10 µM: -4.2%
UACC-62
  inhibition of growth at 10 µM: 9.64%
OVCAR-5
  inhibition of growth at 10 µM: -4.21%
786-0
  inhibition of growth at 10 µM: -6.44%
CAKI-1
  inhibition of growth at 10 µM: 26.4%
RXF 393
  inhibition of growth at 10 µM: -9.71%
UO-31 [4]
  inhibition of growth at 10 µM: 43.7%
DU-145
  inhibition of growth at 10 µM: -11.3%
MCF7 [5]
  inhibition of growth at 10 µM: 20.6%
MDA-MB-231
  inhibition of growth at 10 µM: 18.8%
BT-549
  inhibition of growth at 10 µM: -17.8%
MDA-MB-468
  inhibition of growth at 10 µM: 8.16%

## O=C1/C(=C\c2ccc3ccccc3c2)Sc2ccc(Cl)cc21
MCF7 [1]
  IC50: 43.9 µg/mL (≈ 136 µM)
UO-31 [2]
  IC50: 39.9 µg/mL (≈ 124 µM)
HL-60(TB)
  inhibition of growth at 10 µM: -7.44%
MOLT-4
  inhibition of growth at 10 µM: 1.25%
SR
  inhibition of growth at 10 µM: 18.6%
HOP-62
  inhibition of growth at 10 µM: 5.71%
NCI-H226
  inhibition of growth at 10 µM: 17.9%
HCC 2998
  inhibition of growth at 10 µM: -27.2%
HT-29
  inhibition of growth at 10 µM: -1.78%
SK-MEL-28
  inhibition of growth at 10 µM: -17.4%
UACC-257
  inhibition of growth at 10 µM: -3.36%
UACC-62
  inhibition of growth at 10 µM: 21.7%
OVCAR-5
  inhibition of growth at 10 µM: -2.92%
786-0
  inhibition of growth at 10 µM: 0.49%
CAKI-1
  inhibition of growth at 10 µM: 27.9%
RXF 393
  inhibition of growth at 10 µM: -2.24%
UO-31 [4]
  inhibition of growth at 10 µM: -5.61%
DU-145
  inhibition of growth at 10 µM: -10.2%
MCF7 [5]
  inhibition of growth at 10 µM: -10.2%
MDA-MB-231
  inhibition of growth at 10 µM: 12.4%
BT-549
  inhibition of growth at 10 µM: -9.47%
MDA-MB-468
  inhibition of growth at 10 µM: -6.42%

## N#Cc1cnn(C2=Nc3c(sc4ccc(Cl)cc34)C(c3cccc([N+](=O)[O-])c3)N2)c1N (centres undefined)
MCF7 [1]
  IC50: 11.9 µg/mL (≈ 26.5 µM)
UO-31 [2]
  IC50: 32.5 µg/mL (≈ 72.2 µM)
HL-60(TB)
  inhibition of growth at 10 µM: -5.54%
MOLT-4
  inhibition of growth at 10 µM: 8.24%
SR
  inhibition of growth at 10 µM: -0.62%
HOP-62
  inhibition of growth at 10 µM: 5.61%
NCI-H226
  inhibition of growth at 10 µM: 19.2%
HCC 2998
  inhibition of growth at 10 µM: -3.42%
HT-29
  inhibition of growth at 10 µM: -17.9%
SK-MEL-28
  inhibition of growth at 10 µM: -13.6%
UACC-257
  inhibition of growth at 10 µM: -3.69%
UACC-62
  inhibition of growth at 10 µM: 7.54%
OVCAR-5
  inhibition of growth at 10 µM: 4.37%
786-0
  inhibition of growth at 10 µM: 1%
CAKI-1
  inhibition of growth at 10 µM: -3.28%
RXF 393
  inhibition of growth at 10 µM: 4.09%
UO-31 [4]
  inhibition of growth at 10 µM: 41.2%
DU-145
  inhibition of growth at 10 µM: -10.5%
MCF7 [5]
  inhibition of growth at 10 µM: 29.9%
MDA-MB-231
  inhibition of growth at 10 µM: 22.9%
BT-549
  inhibition of growth at 10 µM: -5.52%
MDA-MB-468
  inhibition of growth at 10 µM: 3.7%

## CCOC(=O)CSC1=Nc2c(sc3ccc(Cl)cc23)C(c2cccc([N+](=O)[O-])c2)N1 (centres undefined)
MCF7 [1]
  IC50: 22.1 µg/mL (≈ 47.9 µM)
UO-31 [2]
  IC50: 11.8 µg/mL (≈ 25.6 µM)
HL-60(TB)
  inhibition of growth at 10 µM: 3.55%
MOLT-4
  inhibition of growth at 10 µM: 14.6%
SR
  inhibition of growth at 10 µM: 21.4%
HOP-62
  inhibition of growth at 10 µM: 19.6%
NCI-H226
  inhibition of growth at 10 µM: 8.28%
HCC 2998
  inhibition of growth at 10 µM: -16.9%
HT-29
  inhibition of growth at 10 µM: -15.9%
SK-MEL-28
  inhibition of growth at 10 µM: -14%
UACC-257
  inhibition of growth at 10 µM: 2.03%
UACC-62
  inhibition of growth at 10 µM: 6.62%
OVCAR-5
  inhibition of growth at 10 µM: -1.2%
786-0
  inhibition of growth at 10 µM: -2.24%
CAKI-1
  inhibition of growth at 10 µM: 16.5%
RXF 393
  inhibition of growth at 10 µM: -12.8%
UO-31 [4]
  inhibition of growth at 10 µM: 44.7%
DU-145
  inhibition of growth at 10 µM: -8.66%
MCF7 [5]
  inhibition of growth at 10 µM: 20.1%
MDA-MB-231
  inhibition of growth at 10 µM: 9.26%
BT-549
  inhibition of growth at 10 µM: -12.4%
MDA-MB-468
  inhibition of growth at 10 µM: -24.4%
